In ChEMBL document CHEMBL5579888, “A Comparative Study on the DNA Interactions and Biological Activities of Benzophenanthridine and Protoberberine Alkaloids” (J Nat Prod, 2024):
Calls of active or inactive are those of the source. The rule behind the calls is not given here.

Assays:
A-375 [1] = experiment: Induction of apoptosis in human A-375 cells assessed assessed as viable cells at 5 uM incubated for 24 hrs by Annexin V-Elab Fluor 647/propidium iodide staining based flow cytometry (reference value: 91.1 %); assay type: functional; conditions: read-out: Activity
dsDNA [2] = experiment: Binding affinity to double stranded DNA ssab (unknown origin) assessed as change in fluorescence intensity at 1 uM incubated for 0.5 hrs in presence of different concentrations of DNA by fluorescence spectra analysis; assay type: nucleic-acid assay
Quadruplex DNA [3] = experiment: Displacement of ThT from human G4-quadruplex Bcl2 DNA 5'- CGGGCGCGGGAGGAAGGGGGCGGGAGC-3' incubated for 0.5 hrs by SpectraMax M2 microplate reader analysis; assay type: nucleic-acid assay
LoVo = experiment: Antiproliferative activity against human LoVo cells assessed as reduction in cell viability incubated for 48 hrs by CCK-8 assay; assay type: functional, cell-based
Quadruplex DNA [4] = experiment: Binding affinity to human G4-quadruplex KRAS DNA 5'- AGGGCGGTGTGGGAAGAGGGAAGAGGGGGAGG-3' at 10 uM by CD spectra analysis; assay type: nucleic-acid assay
A2780/Taxol = experiment: Antiproliferative activity against human A2780T cells assessed as reduction in cell viability incubated for 48 hrs by CCK-8 assay; assay type: functional, cell-based
PC-3 = experiment: Antiproliferative activity against human PC-3 cells assessed as reduction in cell viability incubated for 24 hrs by CCK-8 assay; assay type: functional, cell-based; conditions: PC-3, 24 h
Quadruplex DNA [5] = experiment: Binding affinity to human G4-quadruplex Pu27 DNA 5'- TGGGGAGGGTGGGGAGGGTGGGGAAGG-3' at 20 uM by UV-Visible absorption spectroscopic analysis; assay type: nucleic-acid assay
Quadruplex DNA [6] = experiment: Binding affinity to human G4-quadruplex KRAS DNA 5'- AGGGCGGTGTGGGAAGAGGGAAGAGGGGGAGG-3' at 20 uM by UV-Visible absorption spectroscopic analysis; assay type: nucleic-acid assay
Quadruplex DNA [7] = experiment: Displacement of ThT from human G4-quadruplex c-kit2 DNA 5'- CGGGCGGGCGCGAGGGAGGGT-3' incubated for 0.5 hrs by SpectraMax M2 microplate reader analysis; assay type: nucleic-acid assay
dsDNA [8] = experiment: Binding affinity to double stranded DNA AT15 (unknown origin) incubated for 0.5 hrs in presence of different concentration DNA by fluorescence spectra analysis; assay type: nucleic-acid assay
dsDNA [9] = experiment: Displacement of Hoechst 33342 from double stranded DNA ssab (unknown origin) incubated for 0.5 hrs by SpectraMax M2 microplate reader analysis; assay type: nucleic-acid assay
Quadruplex DNA [10] = experiment: Binding affinity to human G4-quadruplex Bcl2 DNA 5'- CGGGCGCGGGAGGAAGGGGGCGGGAGC-3' assessed as change in fluorescence intensity at 1 uM incubated for 0.5 hrs in presence of different concentrations of DNA by fluorescence spectra analysis; assay type: nucleic-acid assay
Quadruplex DNA [11] = experiment: Binding affinity to human G4-quadruplex VEGF DNA 5'- GGGCGGGCCGGGGGCGGG-3' at 20 uM by UV-Visible absorption spectroscopic analysis; assay type: nucleic-acid assay
A-375 [12] = experiment: Inhibition of DNA synthesis in human A-375 cells at 5 uM incubated for 24 hrs by Edu incorporation based flow cytometry analysis; assay type: functional, cell-based
dsDNA [13] = experiment: Binding affinity to double stranded DNA ssab1 (unknown origin) incubated for 0.5 hrs in presence of different concentration DNA by fluorescence spectra analysis; assay type: nucleic-acid assay
Quadruplex DNA [14] = experiment: Binding affinity to human G4-quadruplex Pu27 DNA 5'- TGGGGAGGGTGGGGAGGGTGGGGAAGG-3' assessed as change in fluorescence intensity at 1 uM incubated for 0.5 hrs by fluorescence spectra analysis; assay type: nucleic-acid assay
A-375 [15] = experiment: Induction of apoptosis in human A-375 cells assessed assessed as necrotic cells at 5 uM incubated for 24 hrs by Annexin V-Elab Fluor 647/propidium iodide staining based flow cytometry (reference value: 1.45 %); assay type: functional
dsDNA [16] = experiment: Binding affinity to double stranded DNA AT15-4AT (unknown origin) incubated for 0.5 hrs in presence of different concentration DNA by fluorescence spectra analysis; assay type: nucleic-acid assay
Quadruplex DNA [17] = experiment: Binding affinity to human G4-quadruplex 22AG DNA 5'- AGGGTTAGGGTTAGGGTTAGGG -3' at 20 uM by UV-Visible absorption spectroscopic analysis; assay type: nucleic-acid assay
Quadruplex DNA [18] = experiment: Binding affinity to human G4-quadruplex Oxy28 DNA 5'- GGGGTTTTGGGGTTTTGGGGTTTTGGGG -3' assessed as change in fluorescence intensity at 1 uM incubated for 0.5 hrs by fluorescence spectra analysis; assay type: nucleic-acid assay
A-375 [19] = experiment: Induction of apoptosis in human A-375 cells assessed assessed as early apoptotic cells at 5 uM incubated for 24 hrs by Annexin V-Elab Fluor 647/propidium iodide staining based flow cytometry (reference value: 1.14 %); assay type: functional
A-375 [20] = experiment: Induction of cell cycle arrest in human A-375 cells assessed assessed as cell accumulation at G0/G1 phase at 5 uM incubated for 24 hrs by propidium iodide staining based flow cytometry (reference value: 54.25 %); assay type: functional
A549/TR = experiment: Antiproliferative activity against human A549/Taxol cells assessed as reduction in cell viability incubated for 48 hrs by CCK-8 assay; assay type: functional, cell-based
Salmon testes DNA = experiment: Displacement of Hoechst 33342 from salmon sperm DNA incubated for 0.5 hrs by SpectraMax M2 microplate reader analysis; assay type: nucleic-acid assay, Salmo salar
Quadruplex DNA [21] = experiment: Binding affinity to human G4-quadruplex c-kit2 DNA 5'- CGGGCGGGCGCGAGGGAGGGT-3' at 20 uM by UV-Visible absorption spectroscopic analysis; assay type: nucleic-acid assay
Quadruplex DNA [22] = experiment: Displacement of ThT from human G4-quadruplex 22AG DNA 5'- AGGGTTAGGGTTAGGGTTAGGG -3' incubated for 0.5 hrs by SpectraMax M2 microplate reader analysis; assay type: nucleic-acid assay
A-375 [23] = experiment: Induction of apoptosis in human A-375 cells assessed assessed as late apoptotic cells at 5 uM incubated for 24 hrs by Annexin V-Elab Fluor 647/propidium iodide staining based flow cytometry (reference value: 6.31 %); assay type: functional

SMILES: COc1ccc2cc3[n+](cc2c1OC)CCc1cc2c(cc1-3)OCO2 [BERBERINE]
- viability at 5 µM (A-375 [1]): 35.4%
- Activity (dsDNA [2]): inactive
- Kd (Quadruplex DNA [3]): 1840 nM
- IC50 (LoVo): ≥ 24300 nM
- Activity (Quadruplex DNA [4]): inactive
- IC50 (A2780/Taxol): ≥ 24300 nM
- IC50 (PC-3): ≥ 24300 nM
- Activity (Quadruplex DNA [5]): Active
- Activity (Quadruplex DNA [6]): Active
- DC50 (Quadruplex DNA [7]): 690 nM
- Activity (dsDNA [8]): inactive
- DC50 (dsDNA [9]): 22100 nM
- Kd (Quadruplex DNA [10]): 2440 nM
- Activity (Quadruplex DNA [11]): Active
- inhibition (A-375 [12]): inactive
- EC50 (dsDNA [13]): 450 nM
- Activity (Quadruplex DNA [14]): Active
- Activity (A-375 [15]): 56.1%
- EC50 (dsDNA [16]): 230 nM
- Activity (Quadruplex DNA [17]): Active
- Activity (Quadruplex DNA [18]): Active
- Activity (A-375 [19]): 1.28%
- Activity (A-375 [20]): 56.99%
- IC50 (A549/TR): ≥ 24300 nM
- DC50 (Salmon testes DNA): 56600 nM
- Activity (Quadruplex DNA [21]): Active
- DC50 (Quadruplex DNA [22]): 23500 nM
- Activity (A-375 [23]): 7.26%

SMILES: COc1ccc2c(c[n+](C)c3c4cc5c(cc4ccc23)OCO5)c1OC [CHELERYTHRINE]
- viability at 5 µM (A-375 [1]): 56%
- Activity (dsDNA [2]): Active
- Kd (Quadruplex DNA [3]): 860 nM
- Activity (Quadruplex DNA [4]): inactive
- Activity (Quadruplex DNA [5]): Active
- Activity (Quadruplex DNA [6]): Active
- DC50 (Quadruplex DNA [7]): 550 nM
- EC50 (dsDNA [8]): 1130 nM
- DC50 (dsDNA [9]): 3490 nM
- Kd (Quadruplex DNA [10]): 5800 nM
- Activity (Quadruplex DNA [11]): Active
- inhibition (A-375 [12]): Active
- EC50 (dsDNA [13]): 970 nM
- Activity (Quadruplex DNA [14]): Active
- Activity (A-375 [15]): 6.96%
- EC50 (dsDNA [16]): 1150 nM
- Activity (Quadruplex DNA [17]): Active
- Activity (Quadruplex DNA [18]): Active
- Activity (A-375 [19]): 1.84%
- Activity (A-375 [20]): 36.15%
- DC50 (Salmon testes DNA): 6470 nM
- Activity (Quadruplex DNA [21]): Active
- DC50 (Quadruplex DNA [22]): 3040 nM
- Activity (A-375 [23]): 35.2%

SMILES: c1c2c(cc3c1OCO3)-c1cc3ccc4c(c3c[n+]1CC2)OCO4 [COPTISINE]
- viability at 5 µM (A-375 [1]): 0.022%
- Activity (dsDNA [2]): inactive
- Kd (Quadruplex DNA [3]): 350 nM
- IC50 (LoVo): ≥ 24300 nM
- Activity (Quadruplex DNA [4]): inactive
- IC50 (A2780/Taxol): ≥ 24300 nM
- IC50 (PC-3): ≥ 24300 nM
- Activity (Quadruplex DNA [5]): Active
- Activity (Quadruplex DNA [6]): Active
- DC50 (Quadruplex DNA [7]): 170 nM
- EC50 (dsDNA [8]): 1690 nM
- DC50 (dsDNA [9]): 23000 nM
- Kd (Quadruplex DNA [10]): 1150 nM
- Activity (Quadruplex DNA [11]): Active
- inhibition (A-375 [12]): inactive
- EC50 (dsDNA [13]): 9390 nM
- Activity (Quadruplex DNA [14]): Active
- Activity (A-375 [15]): 84.6%
- EC50 (dsDNA [16]): 5570 nM
- Activity (Quadruplex DNA [17]): Active
- Activity (Quadruplex DNA [18]): Active
- Activity (A-375 [19]): 0%
- Activity (A-375 [20]): 57.31%
- IC50 (A549/TR): ≥ 24300 nM
- DC50 (Salmon testes DNA): 38100 nM
- Activity (Quadruplex DNA [21]): Active
- DC50 (Quadruplex DNA [22]): 1970 nM
- Activity (A-375 [23]): 15.3%

SMILES: C[n+]1cc2c3c(ccc2c2ccc4cc5c(cc4c21)OCO5)OCO3 [SANGUINARIUM]
- viability at 5 µM (A-375 [1]): 20.4%
- Activity (dsDNA [2]): Active
- Kd (Quadruplex DNA [3]): 440 nM
- Activity (Quadruplex DNA [4]): inactive
- Activity (Quadruplex DNA [5]): Active
- Activity (Quadruplex DNA [6]): Active
- DC50 (Quadruplex DNA [7]): 250 nM
- EC50 (dsDNA [8]): 610 nM
- DC50 (dsDNA [9]): 3210 nM
- Kd (Quadruplex DNA [10]): 11000 nM
- Activity (Quadruplex DNA [11]): Active
- inhibition (A-375 [12]): Active
- EC50 (dsDNA [13]): 790 nM
- Activity (Quadruplex DNA [14]): Active
- Activity (A-375 [15]): 29.3%
- EC50 (dsDNA [16]): 770 nM
- Activity (Quadruplex DNA [17]): Active
- Activity (Quadruplex DNA [18]): Active
- Activity (A-375 [19]): 0.84%
- Activity (A-375 [20]): 40.85%
- DC50 (Salmon testes DNA): 5700 nM
- Activity (Quadruplex DNA [21]): Active
- DC50 (Quadruplex DNA [22]): 2760 nM
- Activity (A-375 [23]): 49.5%
